# Data taken from patent US4908363A, “Imidazole derivatives” (Hoffmann-La Roche Inc., priority 1987, dated 1990).
# How the values were obtained:
# [1] = Inflammation-inhibiting activity in established Mycobacterium butyricum arthritis (paw volume, plasma fibrinogen, body weight); format: in vivo, male rats; details: by intubation each day over 7 days; for Paw volume change: vehicle 0.46 ± 0.08; for Body weight change: vehicle 13.2 ± 1.8; for Plasma Fibrinogen: vehicle 1233 ± 56
# Description: Representative compounds of formula I were tested for their inflammation-inhibiting properties in the animal test described hereinafter:
# 0.1 ml of a 0.5% (weight/volume) suspension of heat-killed and dried Mycobacterium butyricum in heavy mineral oil, containing 0.2% digitionin, is injected into the base of the tail of male rats (120-140 g). The animals are housed individually and receive feed and water ad libitum. The thus-produced arthritis is allowed to develop without treatment during 21 days. Then on the one hand the body weight of the animals is determined and on the other hand the volumes of their two hind paws (by immersing the paws in a mercury plethysmograph up to the height of the lateral malleolus). Thereupon, the animals are divided into groups each comprising six animals in each case of approximately the same average volumes of the hind paws. The substance to be investigated is then administered to them by intubation each day over a period of 7 days. At the end of the treatment period, body weight and volumes of the hind paws are again determined and the changes over the treatment period is calculated. Subsequently, the animals are killed and plasma samples are removed from them in order to determine the fibrinogen in accordance with Exner et al., 1979 (Amer. J. Clin. Path.) after precipitation with ammonium sulfate.
# The results determined for three representative compounds of formula I, in the animal test described hereinbefore, are set forth in the following Table I.
# [2] = Acute toxicity, single oral administration; details: mouse, in vivo; single oral administration to mice
# Source text: The following Table II contains data concerning the acute toxicity of the above three compounds (LD50 in the case of single oral administration to mice).
# [3] = Edema-inhibiting properties in carrageen pleuritis; format: in vivo, male rats; details: 1 hour before and 5 hours after carrageen, 24 hours
# Description: were tested for their edema-inhibiting properties in the animal test described hereinafter:
# A pleuritis is produced in male rats (230-250 g), which receive feed and water ad libitum, by the injection of 0.2 ml of a 1% solution of carrageen in sterile, pyrogen-free sodium chloride solution into the right pleural cavity. The substance to be investigated, suspended in an aqueous vehicle (containing 0.5% carboxymethylcellulose, 0.9% sodium chloride, 0.37% Tween 80 and 0.86% benzyl alcohol), or the vehicle alone, are administered by intubation to the animals 1 hour before and 5 hours after the carrageen injection. Twenty-four (24) hours after the carrageen injection, the animals are killed by decapitation, left to bleed out and the pleural cavity is exposed by cutting through the ribs on both sides of the sternum. The exudate is removed from the pleural cavity by means of a pipette and its volume is determined. Thereupon, the pleural cavity is washed once with phosphate-buffered sodium chloride solution containing fetal bovine serum (1:1) and the wash solution is combined with the exudate. The total number of cells in the pleural cavity is determined using a "Coulter Counter" which is calibrated so that red blood corpuscles are not counted. Cell smears on glass plates can be produced directly from the exudate, fixed in methanol and colored for the differential counting of polymorphonuclear leucocytes (PMN) and macrophages; a total of 200 PMN and macrophages can be counted and the results expressed as a percentage of each type of cell present in the pleural exudate.
SMILES,Paw volume change ([1]; 22 μmol/kg) [mL],Body weight change ([1]; 22 μmol/kg) [g],Plasma Fibrinogen ([1]; 22 μmol/kg) [mg/dL],Paw volume change ([1]; 66 μmol/kg) [mL],Body weight change ([1]; 66 μmol/kg) [g],Plasma Fibrinogen ([1]; 66 μmol/kg) [mg/dL],LD50 [2] [mg/kg],"% Chance compared with controls, Exudate volume ([3]; 30 mg/kg p.o.) [%]","% Chance compared with controls, Number of cells ([3]; 30 mg/kg p.o.)","% Chance compared with controls, Exudate volume ([3]; 50 mg/kg p.o.) [%]","% Chance compared with controls, Number of cells ([3]; 50 mg/kg p.o.) [%]","% Chance compared with controls, Exudate volume ([3]; 100 mg/kg p.o.) [%]","% Chance compared with controls, Number of cells ([3]; 100 mg/kg p.o.) [%]"
"Cc1nccn1N=Cc1cc(C(C)(C)C)c(O)c(C(C)(C)C)c1 [B, 1-(4-hydroxy-3,5-di-tert.butylbenzylideneamino)-2-methylimidazole]",-0.77 ± 0.05,28.2 ± 1.4,405 ± 126,-0.84 ± 0.12,35.3 ± 1.8,75 ± 15,> 1000,,,,,,
"CC(C)(C)c1cc(C=Nn2ccnc2)cc(C(C)(C)C)c1O [C, 1-(4-hydroxy-3,5-di-tert.-butylbenzylideneamino)imidazole]",,,,-0.92 ± 0.08,31.2 ± 2.0,544 ± 97,> 1000,,,,,,
"CC(C)(C)c1cc(CNn2ccnc2)cc(C(C)(C)C)c1O [Compound A, 1-(4-Hydroxy-3,5-di-tert.butylbenzylamino)imidazole]",,,,-0.18 ± 0.08,30.5 ± 1.2,1040 ± 75,> 1000,-51,-12%,-60,-14,-68,-23
"Cc1nccn1NCc1cc(C(C)(C)C)c(O)c(C(C)(C)C)c1 [D, 1-(4-hydroxy-3,5-di-tert.-butylbenzylamino)-2-methylimidazole]",,,,,,,,-29,-6%,,,-60,-22
"CCCc1nccn1NCc1cc(C(C)(C)C)c(O)c(C(C)(C)C)c1 [E, 1-(4-hydroxy-3,5-di-tert.butylbenzylamino)-2-propylimidazole]",,,,,,,,-39,+4%,,,-73,-21
